Laboratory results published in patent publication US10941158B2, “Pyrazole ACC inhibitors and uses thereof” (Gilead Apollo, LLC, priority 2015, dated 2021).
≈ marks a conversion by molar mass, not a printed value. Where two headings read alike, the source gives them in different places.

What was measured:
[1] = target: fungal (fACC2) ACC2 (UniProt Q00955); conditions: read-out: fACC2 IC50; fungal ACC2, ADP-Glo
[2] = system: C. krusei ATCC 6258; assay: Anti-Fungal (Candida) Activity Assay, broth microtiter MIC; format: cell-based; conditions: Pichia kudriavzevii, read-out: MIC C. krusei ATCC 6258
Outline: (§1)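 Strains plated from frozen stock onto Sabouraud dextrose agar, 35 °C, 24 h; colonies suspended directly in RPMI 1640/MOPS, density from standard curves; CLSI M27-A3 microdilution; 48 h read, visual vs growth control.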

[3] = system: C. albicans ATCC 90028; assay: as above; format: cell-based; conditions: read-out: MIC C. albicans ATCC 90028
Outline: as §1

[4] = system: C. parapsilosis ATCC 22019; assay: as above; format: cell-based; conditions: Lodderomyces parapsilosis, read-out: MIC C. parapsilosis ATCC 22019
Outline: as §1

[5] = target: human (hACC2) ACC2 (Homo sapiens, UniProt O00763); assay: In vitro Acetyl-CoA Carboxylase (ACC) inhibition assay (ADP-Glo), hACC2; format: biochemical
Experimental: The detailed procedure is as follows. […] 10 μL ADP glo reagent was added. […] 20 μL kinase detection reagent was added.
“NA” stands for “not assayed.”

[6] = system: Septoria tritici (St); assay: Growth inhibition assay of fungal pathogens; format: cell-based; conditions: for IC90: Zymoseptoria tritici, read-out: Concentration at 90% Inhibition St
Outline: (§2)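 Compounds in DMSO tested at final 50, 10, 2 ppm or 2, 0.4, 0.08 ppm. Spores in 17% V8 medium, or 1.5 mm mycelial plugs in ¼ PDB for R. solani, incubated with compound. OD600 and visual ratings at 48 h versus 2% DMSO control gave percent growth inhibition.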

[7] = system: Fusarium virguliforme (Fv); assay: Growth inhibition assay of fungal pathogens; format: cell-based; conditions: 48 h
Outline: as §2

[8] = system: Botrtyis cinerea (Bc); assay: Growth inhibition assay of fungal pathogens; format: cell-based; conditions: 48 h, read-out: Concentration at 90% Inhibition Bc
Outline: (§3)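 Spores of Fm, Bc and Dm were suspended in 17% V8 liquid medium, while Rs was inoculated as 1.5 mm mycelial plugs in ¼ PDB. Compounds were tested at final 50, 10 and 2 ppm or 2, 0.4 and 0.08 ppm. Percent growth inhibition at 48 h versus 2% DMSO came from OD600 and visual ratings.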

[9] = system: Phytophthora capsici (Pc); assay: Growth inhibition assay of fungal pathogens; format: cell-based; conditions: for IC90: Phytophthora capsici, read-out: Concentration at 90% Inhibition Pc
Outline: as §2

[10] = system: Collectotrichum graminicola (Cg); assay: Growth inhibition assay of fungal pathogens; format: cell-based; conditions: 48 h, read-out: Concentration at 90% Inhibition Cg
Outline: as §2

[11] = system: Diplodia maydis (Dm); assay: Growth inhibition assay of fungal pathogens; format: cell-based; conditions: Stenocarpella maydis, 48 h, read-out: Concentration at 90% Inhibition Dm
Outline: as §3

[12] = system: Fusarium moniliforme (Fm); assay: Growth inhibition assay of fungal pathogens; format: cell-based; conditions: for IC90: Fusarium verticillioides, 48 h, read-out: Concentration at 90% Inhibition Fm
Outline: as §3

[13] = system: Rhizoctonia solani (Rs); assay: Growth inhibition assay of fungal pathogens; format: cell-based; conditions: 48 h, read-out: Concentration at 90% Inhibition Rs
Outline: as §3

[14] = read-out: Concentration at 90% Inhibition Fv, Table 4a, 48 hours
[15] = read-out: Concentration at 90% Inhibition Fv, Table 4b, 48 hours
[16] = ATCC6258, 3 replicates, MIC recorded at 48 h
[17] = ATCC90028, 3 replicates, MIC recorded at 48 h
[18] = ATCC22019, 3 replicates, MIC recorded at 48 h
[19] = Table 4b, 48 hours, read-out: Concentration at 90% Inhibition Fv

human (hACC2) ACC2, sequence (O00763 whole entry): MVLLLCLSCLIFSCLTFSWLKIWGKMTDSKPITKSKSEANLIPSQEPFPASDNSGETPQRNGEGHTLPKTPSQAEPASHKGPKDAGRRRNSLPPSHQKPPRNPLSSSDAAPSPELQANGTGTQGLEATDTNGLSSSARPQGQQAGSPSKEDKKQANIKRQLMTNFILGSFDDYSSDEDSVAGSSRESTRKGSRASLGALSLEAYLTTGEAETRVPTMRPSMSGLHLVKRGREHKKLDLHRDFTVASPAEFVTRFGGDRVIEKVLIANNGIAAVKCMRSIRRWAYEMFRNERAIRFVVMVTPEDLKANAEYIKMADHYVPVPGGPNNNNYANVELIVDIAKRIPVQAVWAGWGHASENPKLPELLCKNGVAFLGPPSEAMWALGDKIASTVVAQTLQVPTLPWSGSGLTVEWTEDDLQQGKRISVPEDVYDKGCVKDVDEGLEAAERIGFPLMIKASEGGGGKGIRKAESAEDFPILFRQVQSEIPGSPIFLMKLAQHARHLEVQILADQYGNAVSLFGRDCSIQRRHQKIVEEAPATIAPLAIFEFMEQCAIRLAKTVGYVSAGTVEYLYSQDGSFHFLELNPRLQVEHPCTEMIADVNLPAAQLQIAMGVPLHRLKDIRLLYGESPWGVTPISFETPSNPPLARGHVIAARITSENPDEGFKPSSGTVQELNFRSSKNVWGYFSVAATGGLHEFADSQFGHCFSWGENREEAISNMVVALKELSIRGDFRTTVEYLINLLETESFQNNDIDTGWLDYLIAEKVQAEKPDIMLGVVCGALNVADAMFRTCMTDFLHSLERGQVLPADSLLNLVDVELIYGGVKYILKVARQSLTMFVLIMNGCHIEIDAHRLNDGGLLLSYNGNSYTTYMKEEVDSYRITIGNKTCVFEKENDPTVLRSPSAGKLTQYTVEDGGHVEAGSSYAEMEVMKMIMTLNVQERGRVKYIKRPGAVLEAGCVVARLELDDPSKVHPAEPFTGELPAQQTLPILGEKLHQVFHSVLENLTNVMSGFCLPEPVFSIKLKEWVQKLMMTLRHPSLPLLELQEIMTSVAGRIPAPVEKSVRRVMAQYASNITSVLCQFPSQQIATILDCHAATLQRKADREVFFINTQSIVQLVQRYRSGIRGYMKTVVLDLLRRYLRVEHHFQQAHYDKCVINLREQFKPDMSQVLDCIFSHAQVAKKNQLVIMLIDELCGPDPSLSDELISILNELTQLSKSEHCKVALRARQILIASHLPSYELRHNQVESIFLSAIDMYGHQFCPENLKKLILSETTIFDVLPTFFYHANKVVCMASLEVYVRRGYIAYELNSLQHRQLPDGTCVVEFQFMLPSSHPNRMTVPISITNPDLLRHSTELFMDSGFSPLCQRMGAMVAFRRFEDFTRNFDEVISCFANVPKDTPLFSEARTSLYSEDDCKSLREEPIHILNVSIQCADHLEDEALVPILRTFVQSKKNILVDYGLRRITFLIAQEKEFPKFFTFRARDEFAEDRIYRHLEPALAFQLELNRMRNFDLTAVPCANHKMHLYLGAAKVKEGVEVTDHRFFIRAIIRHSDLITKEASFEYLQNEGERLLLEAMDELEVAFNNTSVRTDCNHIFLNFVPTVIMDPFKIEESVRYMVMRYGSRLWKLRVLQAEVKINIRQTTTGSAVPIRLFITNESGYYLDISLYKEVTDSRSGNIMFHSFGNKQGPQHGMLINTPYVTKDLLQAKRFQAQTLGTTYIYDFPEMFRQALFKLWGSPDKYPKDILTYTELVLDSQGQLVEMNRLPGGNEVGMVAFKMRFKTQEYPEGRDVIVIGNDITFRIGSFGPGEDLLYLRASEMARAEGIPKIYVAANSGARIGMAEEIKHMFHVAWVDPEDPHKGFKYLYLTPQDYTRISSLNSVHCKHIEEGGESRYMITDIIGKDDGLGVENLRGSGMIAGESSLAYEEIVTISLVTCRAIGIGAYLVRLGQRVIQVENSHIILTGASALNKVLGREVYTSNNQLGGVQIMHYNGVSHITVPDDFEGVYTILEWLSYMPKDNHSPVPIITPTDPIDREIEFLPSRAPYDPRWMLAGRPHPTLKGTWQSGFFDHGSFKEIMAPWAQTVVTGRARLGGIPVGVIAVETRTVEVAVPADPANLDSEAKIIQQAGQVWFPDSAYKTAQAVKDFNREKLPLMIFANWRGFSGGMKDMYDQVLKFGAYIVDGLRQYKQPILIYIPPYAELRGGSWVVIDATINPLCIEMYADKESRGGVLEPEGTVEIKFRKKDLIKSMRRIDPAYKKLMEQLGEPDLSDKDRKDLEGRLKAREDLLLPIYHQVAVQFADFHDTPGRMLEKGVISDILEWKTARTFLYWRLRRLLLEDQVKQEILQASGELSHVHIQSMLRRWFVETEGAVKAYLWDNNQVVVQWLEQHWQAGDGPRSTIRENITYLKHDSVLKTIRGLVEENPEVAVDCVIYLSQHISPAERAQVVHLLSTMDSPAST
fungal (fACC2) ACC2, sequence (Q00955 whole entry): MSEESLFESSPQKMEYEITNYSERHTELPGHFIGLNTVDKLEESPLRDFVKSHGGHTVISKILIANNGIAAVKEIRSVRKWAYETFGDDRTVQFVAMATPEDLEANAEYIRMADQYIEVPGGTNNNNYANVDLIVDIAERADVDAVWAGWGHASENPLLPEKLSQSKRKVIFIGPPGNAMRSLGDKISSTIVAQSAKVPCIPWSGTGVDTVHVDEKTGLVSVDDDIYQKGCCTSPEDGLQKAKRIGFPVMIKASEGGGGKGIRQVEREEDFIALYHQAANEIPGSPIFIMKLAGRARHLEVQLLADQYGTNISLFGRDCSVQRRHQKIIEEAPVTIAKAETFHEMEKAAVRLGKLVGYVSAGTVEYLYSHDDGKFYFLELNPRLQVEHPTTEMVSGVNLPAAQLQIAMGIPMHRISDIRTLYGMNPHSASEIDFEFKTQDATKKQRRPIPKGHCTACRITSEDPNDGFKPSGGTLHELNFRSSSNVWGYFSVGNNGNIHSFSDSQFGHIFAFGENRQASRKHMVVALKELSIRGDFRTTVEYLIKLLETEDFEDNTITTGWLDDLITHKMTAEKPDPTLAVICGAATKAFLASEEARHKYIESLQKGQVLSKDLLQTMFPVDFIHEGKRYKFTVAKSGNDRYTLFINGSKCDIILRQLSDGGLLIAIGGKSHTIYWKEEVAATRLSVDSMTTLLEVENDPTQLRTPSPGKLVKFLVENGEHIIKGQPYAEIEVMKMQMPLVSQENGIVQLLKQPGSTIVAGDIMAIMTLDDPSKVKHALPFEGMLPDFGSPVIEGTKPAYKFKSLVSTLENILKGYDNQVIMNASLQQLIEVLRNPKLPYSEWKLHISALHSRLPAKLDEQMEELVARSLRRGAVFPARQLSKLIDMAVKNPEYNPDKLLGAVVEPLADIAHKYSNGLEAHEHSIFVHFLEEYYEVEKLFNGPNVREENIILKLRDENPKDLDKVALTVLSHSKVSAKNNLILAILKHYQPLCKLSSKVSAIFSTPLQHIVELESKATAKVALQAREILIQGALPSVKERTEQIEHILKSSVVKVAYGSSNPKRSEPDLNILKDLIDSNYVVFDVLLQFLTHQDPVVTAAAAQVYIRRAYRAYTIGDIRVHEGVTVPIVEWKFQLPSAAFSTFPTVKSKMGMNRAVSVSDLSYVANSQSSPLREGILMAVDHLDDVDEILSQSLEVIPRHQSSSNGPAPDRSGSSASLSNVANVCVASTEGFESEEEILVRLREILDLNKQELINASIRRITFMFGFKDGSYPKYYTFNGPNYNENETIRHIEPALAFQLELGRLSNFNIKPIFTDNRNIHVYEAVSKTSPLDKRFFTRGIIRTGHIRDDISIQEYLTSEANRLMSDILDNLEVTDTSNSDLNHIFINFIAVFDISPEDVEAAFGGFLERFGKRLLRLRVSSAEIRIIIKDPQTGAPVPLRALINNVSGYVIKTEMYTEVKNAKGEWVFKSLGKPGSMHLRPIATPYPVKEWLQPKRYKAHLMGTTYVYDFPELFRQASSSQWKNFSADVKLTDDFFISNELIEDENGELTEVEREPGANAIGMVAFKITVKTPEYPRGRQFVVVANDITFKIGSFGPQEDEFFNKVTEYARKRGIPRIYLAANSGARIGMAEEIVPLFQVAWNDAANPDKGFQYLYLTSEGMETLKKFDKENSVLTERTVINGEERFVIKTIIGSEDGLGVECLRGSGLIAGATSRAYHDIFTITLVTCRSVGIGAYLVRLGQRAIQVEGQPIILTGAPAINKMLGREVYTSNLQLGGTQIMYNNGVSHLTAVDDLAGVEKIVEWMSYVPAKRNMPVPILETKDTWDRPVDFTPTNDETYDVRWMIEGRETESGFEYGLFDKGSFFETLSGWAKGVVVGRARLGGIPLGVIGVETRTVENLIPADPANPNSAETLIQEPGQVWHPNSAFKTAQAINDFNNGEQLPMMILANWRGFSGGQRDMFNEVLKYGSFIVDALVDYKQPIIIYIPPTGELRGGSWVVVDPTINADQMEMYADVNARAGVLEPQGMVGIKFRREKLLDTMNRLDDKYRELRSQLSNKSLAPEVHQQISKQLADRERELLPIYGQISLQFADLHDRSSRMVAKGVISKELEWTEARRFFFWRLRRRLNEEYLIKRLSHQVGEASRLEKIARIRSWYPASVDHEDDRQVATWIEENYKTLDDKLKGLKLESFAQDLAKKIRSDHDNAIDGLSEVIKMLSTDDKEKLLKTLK

COc1ccc(F)cc1[C@H](Cn1c(=O)n(C(C)(C)C(=O)NC(C)C)c(=O)c2c(C)c(-n3cccn3)sc21)OC[C@@H](C)O [Compound I-39, 2-(1-((R)-2-(5-fluoro-2-methoxyphenyl)-2-((R)-2-hydroxy-propoxy)ethyl)-5-methyl-2,4-dioxo-6-(1H-pyrazol-1-yl)-1,4-dihydrothieno[2,3-d]pyrimidin-3(2H)-yl)-N-isopropyl-2-methylpropanamide]
IC50 [1]: 0.6 to 3 nM
MIC ([2]; ATCC6258, 48 h): 2.1 to 4 µg/mL (≈ 3.49 to 6.65 µM)
MIC ([3]; ATCC90028, 48 h): > 4.1 µg/mL
MIC ([4]; ATCC22019, 48 h): > 4.1 µg/mL
IC50 [5]: 3 to 10 nM
IC90 ([6]; 48 h, Table 4a): > 50 µg/mL
IC90 ([6]; 48 h, Table 4b): 10 µg/mL (≈ 16.6 µM)
IC90 [7, 14]: > 50 µg/mL
IC90 [7, 15]: 2 µg/mL (≈ 3.32 µM)
IC90 ([8]; Table 4a): 2 µg/mL (≈ 3.32 µM)
IC90 ([8]; Table 4b): 2 µg/mL (≈ 3.32 µM)
IC90 ([9]; 48 h, Table 4a): > 50 µg/mL
IC90 ([9]; 48 h, Table 4b): 10 µg/mL (≈ 16.6 µM)
IC90 ([10]; Table 4a): 0.4 µg/mL (≈ 0.665 µM)
IC90 ([10]; Table 4b): 0.4 µg/mL (≈ 0.665 µM)
IC90 ([11]; Table 4a): 10 µg/mL (≈ 16.6 µM)
IC90 ([11]; Table 4b): 2 µg/mL (≈ 3.32 µM)
IC90 [12]: 0.4 µg/mL (≈ 0.665 µM)
Concentration at 90% Inhibition Fm ([12]; Table 4b, 48 hours): A (“A” provided a compound concentration of 0.4 ppm at 90% inhibition of fungal pathogens)
IC90 ([13]; Table 4a): 0.4 µg/mL (≈ 0.665 µM)
IC90 ([13]; Table 4b): 0.4 µg/mL (≈ 0.665 µM)

COc1ccc(F)cc1[C@H](Cn1c(=O)n([C@@H](C)C(=O)N2CCCC2)c(=O)c2c(C)c(-n3cccn3)sc21)OC(C)C [Compound I-31, 1-((R)-2-(5-fluoro-2-methoxyphenyl)-2-isopropoxyethyl)-5-methyl-3-((S)-1-oxo-1-(pyrrolidin-1-yl)propan-2-yl)-6-(1H-pyrazol-1-yl)thieno[2,3-d]pyrimidine-2,4(1H,3H)-dione]
IC50 [1]: 0.6 to 3 nM
MIC [2, 16]: 2.1 to 4 µg/mL (≈ 3.6 to 6.85 µM)
MIC [3, 17]: 1.1 to 2 µg/mL (≈ 1.88 to 3.43 µM)
MIC [4, 18]: 2.1 to 4 µg/mL (≈ 3.6 to 6.85 µM)
IC50 [5]: 3 to 10 nM
Concentration at 90% Inhibition St ([6]; Table 4b, 48 hours): D (“D” provided a compound concentration of >50 ppm at 90% inhibition of fungal pathogens)
IC90 ([6]; Table 4a, 48 hours): > 50 µg/mL
IC90 ([7]; Table 4a, 48 hours, read-out: Concentration at 90% Inhibition Fv): 0.4 µg/mL (≈ 0.685 µM)
IC90 [7, 19]: 0.4 µg/mL (≈ 0.685 µM)
IC90 ([8]; Table 4a): 0.4 µg/mL (≈ 0.685 µM)
IC90 ([8]; Table 4b): 0.4 µg/mL (≈ 0.685 µM)
IC90 ([9]; Table 4a, 48 hours): > 50 µg/mL
Concentration at 90% Inhibition Pc ([9]; Table 4b, 48 hours): D (“D” provided a compound concentration of >50 ppm at 90% inhibition of fungal pathogens)
IC90 ([10]; Table 4a): 0.4 µg/mL (≈ 0.685 µM)
IC90 ([10]; Table 4b): 0.4 µg/mL (≈ 0.685 µM)
IC90 ([11]; Table 4a): 0.4 µg/mL (≈ 0.685 µM)
IC90 ([11]; Table 4b): 0.4 µg/mL (≈ 0.685 µM)
IC90 ([12]; Table 4a, 48 hours): 0.08 µg/mL (≈ 0.137 µM)
IC90 ([12]; Table 4b, 48 hours): 0.08 µg/mL (≈ 0.137 µM)
IC90 ([13]; Table 4a): 2 µg/mL (≈ 3.43 µM)
IC90 ([13]; Table 4b): 2 µg/mL (≈ 3.43 µM)

COc1ccc(F)cc1[C@H](Cn1c(=O)n(C(C)(C)C(=O)NC(C)C)c(=O)c2c(C)c(-n3cccn3)sc21)OC[C@H](C)O [Compound I-38, 2-(1-((R)-2-(5-fluoro-2-methoxyphenyl)-2-((S)-2-hydroxy-propoxy)ethyl)-5-methyl-2,4-dioxo-6-(1H-pyrazol-1-yl)-1,4-dihydrothieno[2,3-d]pyrimidin-3(2H)-yl)-N-isopropyl-2-methylpropanamide]
IC50 [1]: 0.6 to 3 nM
MIC ([2]; ATCC6258, 48 h): 2.1 to 4 µg/mL (≈ 3.49 to 6.65 µM)
MIC ([3]; ATCC90028, 48 h): > 4.1 µg/mL
MIC ([4]; ATCC22019, 48 h): > 4.1 µg/mL
IC50 [5]: 10 to 40 nM
IC90 ([6]; 48 h, Table 4a): > 50 µg/mL
IC90 ([6]; 48 h, Table 4b): > 50 µg/mL
IC90 [7, 14]: 2 µg/mL (≈ 3.32 µM)
IC90 [7, 15]: 2 µg/mL (≈ 3.32 µM)
IC90 ([8]; Table 4a): 2 µg/mL (≈ 3.32 µM)
IC90 ([8]; Table 4b): 2 µg/mL (≈ 3.32 µM)
IC90 ([9]; 48 h, Table 4a): > 50 µg/mL
IC90 ([9]; 48 h, Table 4b): > 50 µg/mL
IC90 ([10]; Table 4a): > 50 µg/mL
IC90 ([10]; Table 4b): 10 µg/mL (≈ 16.6 µM)
IC90 ([11]; Table 4a): > 50 µg/mL
IC90 ([11]; Table 4b): 10 µg/mL (≈ 16.6 µM)
IC90 [12]: 0.4 µg/mL (≈ 0.665 µM)
Concentration at 90% Inhibition Fm ([12]; Table 4b, 48 hours): A (“A” provided a compound concentration of 0.4 ppm at 90% inhibition of fungal pathogens)
IC90 ([13]; Table 4a): 10 µg/mL (≈ 16.6 µM)
IC90 ([13]; Table 4b): 2 µg/mL (≈ 3.32 µM)

CCO[C@@H](Cn1c(=O)n(C(C)(C)C(=O)NC(C)C)c(=O)c2c(C)c(-n3cccn3)sc21)c1cc(F)ccc1OC [Compound I-33, (R)-2-(1-(2-ethoxy-2-(5-fluoro-2-methoxyphenyl)ethyl)-5-methyl-2,4-dioxo-6-(1H-pyrazol-1-yl)-1,4-dihydrothieno[2,3-d]pyrimidin-3(2H)-yl)-N-isopropyl-2-methylpropanamide]
IC50 [1]: 0.6 to 3 nM
MIC ([2]; ATCC6258, 48 h): > 4.1 µg/mL
MIC ([3]; ATCC90028, 48 h): > 4.1 µg/mL
MIC ([4]; ATCC22019, 48 h): > 4.1 µg/mL
IC50 [5]: 10 to 40 nM
IC90 ([6]; 48 h, Table 4a): > 50 µg/mL
IC90 ([6]; 48 h, Table 4b): > 50 µg/mL
IC90 [7, 14]: 0.4 µg/mL (≈ 0.7 µM)
IC90 [7, 15]: 0.4 µg/mL (≈ 0.7 µM)
IC90 ([8]; Table 4a): 2 µg/mL (≈ 3.5 µM)
IC90 ([8]; Table 4b): 2 µg/mL (≈ 3.5 µM)
IC90 ([9]; 48 h, Table 4a): > 50 µg/mL
IC90 ([9]; 48 h, Table 4b): > 50 µg/mL
IC90 ([10]; Table 4a): 10 µg/mL (≈ 17.5 µM)
IC90 ([10]; Table 4b): 2 µg/mL (≈ 3.5 µM)
IC90 ([11]; Table 4a): > 50 µg/mL
IC90 ([11]; Table 4b): > 50 µg/mL
IC90 [12]: 0.4 µg/mL (≈ 0.7 µM)
Concentration at 90% Inhibition Fm ([12]; Table 4b, 48 hours): A (“A” provided a compound concentration of 0.4 ppm at 90% inhibition of fungal pathogens)
IC90 ([13]; Table 4a): 10 µg/mL (≈ 17.5 µM)
IC90 ([13]; Table 4b): 2 µg/mL (≈ 3.5 µM)

COc1ccc(F)cc1[C@H](Cn1c(=O)n(C(C)(C)C(N)=O)c(=O)c2c(C)c(-n3cccn3)sc21)OCCC#N [Compound I-77, (R)-2-(1-(2-(2-cyanoethoxy)-2-(5-fluoro-2-methoxyphenyl)ethyl)-5-methyl-2,4-dioxo-6-(1H-pyrazol-1-yl)-1,4-dihydrothieno[2,3-d]pyrimidin-3(2H)-yl)-2-methylpropanamide]
IC50 [1]: 0.6 to 3 nM
MIC [2, 16]: > 4.1 µg/mL
MIC [3, 17]: > 4.1 µg/mL
MIC [4, 18]: > 4.1 µg/mL
IC50 [5]: > 40 nM
IC90 ([6]; Table 4b, 48 hours): > 50 µg/mL
IC90 [7, 19]: 10 µg/mL (≈ 18 µM)
IC90 ([8]; Table 4b): > 50 µg/mL
IC90 ([9]; Table 4b, 48 hours): > 50 µg/mL
IC90 ([10]; Table 4b): > 50 µg/mL
IC90 ([11]; Table 4b): > 50 µg/mL
IC90 ([12]; Table 4b, 48 hours): 2 µg/mL (≈ 3.61 µM)
IC90 ([13]; Table 4b): > 50 µg/mL
